Experiments:
Format in all cases: in vivo, human
[1] = system: Subjects Having Insomnia Disorder; assay: Example 1: subjective total sleep time (sTST), Sleep Diary
Source text: As used herein, the term “subjective total sleep time”, abbreviated as “sTST”, means the derived minutes of sleep from sleep onset until the time the subject stopped trying to sleep for the night. In some embodiments, sTST is derived from data entered in a subject's Sleep Diary.
(§1) In some embodiments, sleep diaries were used to assess sleep parameters reported by subjects (i.e., subjective assessments) including subjective sleep onset latency (sSOL), subjective sleep efficiency (sSE), subjective WASO (sWASO), and subjective total sleep time (sTST). Subjects were instructed to complete the Sleep Diary developed based on the consensus Sleep Diary as described in Carney et al., “The consensus sleep diary: standardizing prospective sleep self-monitoring,” Sleep 2012; 35(2):287-302. In some embodiments, the Sleep Diary was used to assess the subject's global perception of quality of sleep on the previous night with the following question: “How would you rate the quality of your sleep last night?” Subjects rated the quality of their sleep on a scale from 1 to 9, with 1 being extremely poor and 9 being extremely good. In some embodiments, the Sleep Diary was used to assess subjective ratings of morning sleepiness with the following question: “How alert/sleepy do you feel this morning?” Subjects rated their sleepiness/alertness level on a Likert scale from 1 to 9, with 1 being extremely sleepy and 9 being extremely alert.
sTST—subjective total sleep time: derived minutes of sleep from sleep onset until the time the subject stopped trying to sleep for the night.
Subjects were randomized in a double-blind manner and received either placebo, 5 mg of lemborexant, or 10 mg of lemborexant (approximately 1:1:1 randomization). All subjects underwent routine safety monitoring through the study, including assessments of treatment-emergent adverse events, 12-lead electrocardiograms, vital signs, weight, and clinical hematology and blood chemistry labs. Suicidality was assessed using the eC-SSRS.
Treatment period 1 began with the first dose of randomized study medication (placebo, 5 mg of lemborexant, or 10 mg of lemborexant). Subjects completed sleep diaries daily in the morning, within one hour of waketime. The subjects were assessed by a clinician one month, two months, three months, and six months after initiation of Treatment period 1. The following assessments were conducted:
In addition to the aforementioned study endpoints, the study included several additional secondary endpoints: • Mean change from study baseline of subjective sleep onset latency, subjective sleep efficiency, subjective wake after sleep onset, and subjective total sleep time at the beginning of treatment (mean of the 7 nights after the first dose in Period 1), at Month 1 and at Month 3. • Mean change from study baseline of subjective total sleep time at Month 6. • Change from study baseline in daytime functioning, assessed as the total score from the 4 items on daytime functioning, on the Insomnia Severity Index, at Months 1, 3, and 6.

[2] = system: Subjects Having Insomnia Disorder; assay: Example 1: Morning Sleepiness rating (scale 1 to 9); conditions: for Morning Sleepiness score, Mean (SD): Baseline; for Morning Sleepiness score, Treatment difference (vs placebo): change from baseline at Month 6
Source text: as §1
Treatment period 1 began with the first dose of randomized study medication (placebo, 5 mg of lemborexant, or 10 mg of lemborexant). Subjects completed sleep diaries daily in the morning, within one hour of waketime. The subjects were assessed by a clinician one month, two months, three months, and six months after initiation of Treatment period 1.

[3] = system: Subjects Having Insomnia Disorder; assay: Example 2: duration of long awakenings; conditions: both doses; relative to placebo, compared with zolpidem ER (FIG. 12)
[4] = system: Subjects Having Insomnia Disorder; assay: Example 3: proportion of sSOL responders (pooled Examples 1 and 2)
Description: The data collected in studies described in Example 1 and Example 2 were pooled and the response of each subject was analyzed.

[5] = First 7 Days, Lemborexant 10 mg

SMILES: Cc1ncc(OC[C@@]2(c3cccc(F)c3)C[C@H]2C(=O)Nc2ccc(F)cn2)c(C)n1 [Lemborexant, (1R,2S)-2-(((2,4-dimethylpyrimidin-5-yl)oxy)methyl)-2-(3-fluorophenyl)-N-(5-fluoropyridin-2-yl)cyclopropanecarboxamide]
- subjective total sleep time compared with placebo ([1]; 5 mg and 10 mg, at the equivalent timepoint (Table 5)): greater increase in subjective total sleep time than subjects treated with placebo
- sTST, Mean ([1]; 5 mg, First 7 Nights): 350.80 min
- sTST, Median ([1]; 5 mg, First 7 Nights): 366.0 min
- sTST, Mean ([1]; 5 mg, Month 1): 357.14 min
- sTST, Median ([1]; 5 mg, Month 1): 374.64 min
- sTST, Mean ([1]; 5 mg, Month 3): 386.42 min
- sTST, Median ([1]; 5 mg, Month 3): 397.86 min
- sTST, Mean ([1]; 5 mg, Month 6): 392.08 min
- sTST, Median ([1]; 5 mg, Month 6): 403.43 min
- sTST, Mean ([1]; 5 mg, Study Baseline): 315.52 min
- sTST, Median ([1]; 5 mg, Study Baseline): 332.14 min
- sTST Change from Study Baseline, Mean ([1]; 5 mg, after 1 Month): 39.32 min
- sTST Change from Study Baseline, Median ([1]; 5 mg, after 1 Month): 36.33 min
- sTST Change from Study Baseline, Mean ([1]; 5 mg, after 3 Months): 65.82 min
- sTST Change from Study Baseline, Median ([1]; 5 mg, after 3 Months): 60.71 min
- sTST Change from Study Baseline, Mean ([1]; 5 mg, after 6 Months): 76.21 min
- sTST Change from Study Baseline, Median ([1]; 5 mg, after 6 Months): 70.71 min
- sTST Change from Study Baseline, Mean ([1]; 5 mg, after 7 Nights): 34.29 min
- sTST Change from Study Baseline, Median ([1]; 5 mg, after 7 Nights): 30.71 min
- sTST LSM treatment difference: Lemborexant/Placebo ([1]; 5 mg, change from Study Baseline after 1 Month): 11.760 min
- sTST LSM treatment difference: Lemborexant/Placebo ([1]; 5 mg, change from Study Baseline after 3 Months): 17.374 min
- sTST LSM treatment difference: Lemborexant/Placebo ([1]; 5 mg, change from Study Baseline after 6 Months): 18.555 min
- sTST LSM treatment difference: Lemborexant/Placebo ([1]; 5 mg, change from Study Baseline after 7 Nights): 22.034 min
- sTST, Mean ([1]; 10 mg, First 7 Nights): 351.43 min
- sTST, Median ([1]; 10 mg, First 7 Nights): 365.11 min
- sTST, Mean ([1]; 10 mg, Month 1): 355.96 min
- sTST, Median ([1]; 10 mg, Month 1): 369.23 min
- sTST, Mean ([1]; 10 mg, Month 3): 374.99 min
- sTST, Median ([1]; 10 mg, Month 3): 391.43 min
- sTST, Mean ([1]; 10 mg, Month 6): 379.25 min
- sTST, Median ([1]; 10 mg, Month 6): 398.57 min
- sTST, Mean ([1]; 10 mg, Study Baseline): 306.89 min
- sTST, Median ([1]; 10 mg, Study Baseline): 315.33 min
- sTST Change from Study Baseline, Mean ([1]; 10 mg, after 1 Month): 53.22 min
- sTST Change from Study Baseline, Median ([1]; 10 mg, after 1 Month): 47.77 min
- sTST Change from Study Baseline, Mean ([1]; 10 mg, after 3 Months): 70.95 min
- sTST Change from Study Baseline, Median ([1]; 10 mg, after 3 Months): 64.52 min
- sTST Change from Study Baseline, Mean ([1]; 10 mg, after 6 Months): 78.32 min
- sTST Change from Study Baseline, Median ([1]; 10 mg, after 6 Months): 72.93 min
- sTST Change from Study Baseline, Mean ([1]; 10 mg, after 7 Nights): 46.01 min
- sTST Change from Study Baseline, Median ([1]; 10 mg, after 7 Nights): 42.31 min
- sTST LSM treatment difference: Lemborexant/Placebo ([1]; 10 mg, change from Study Baseline after 1 Month): 22.131 min
- sTST LSM treatment difference: Lemborexant/Placebo ([1]; 10 mg, change from Study Baseline after 3 Months): 21.686 min
- sTST LSM treatment difference: Lemborexant/Placebo ([1]; 10 mg, change from Study Baseline after 6 Months): 22.686 min
- sTST LSM treatment difference: Lemborexant/Placebo ([1]; 10 mg, change from Study Baseline after 7 Nights): 31.796 min
- Morning Sleepiness score, Mean (SD) ([2]; 5 mg): 3.93 (1.35)
- Morning Sleepiness score, Treatment difference (vs placebo) ([2]; 5 mg): 0.15
- Morning Sleepiness score, Mean (SD) ([2]; 10 mg): 3.93 (1.32)
- Morning Sleepiness score, Treatment difference (vs placebo) ([2]; 10 mg): 0.26
- morning sleepiness compared with placebo ([2]; at 6 months (Table 8)): significantly improved
- length of long awakenings [3]: greater reduction in the length of long awakenings than treatment with zolpidem ER
- Subjective Sleep Onset Latency Responder, No, (%) ([4]; First 7 Days, Lemborexant 5 mg): (86.3) %
- Subjective Sleep Onset Latency Responder, Yes, (%) ([4]; First 7 Days, Lemborexant 5 mg): (12.4) %
- Subjective Sleep Onset Latency Responders, Difference of proportion vs. Placebo ([4]; First 7 Days, Lemborexant 5 mg): 7.80
- Subjective Sleep Onset Latency Responder, No, (%) [4, 5]: (86.2) %
- Subjective Sleep Onset Latency Responder, Yes, (%) [4, 5]: (12.6) %
- Subjective Sleep Onset Latency Responders, Difference of proportion vs. Placebo [4, 5]: 7.80
- Subjective Sleep Onset Latency Responder, No, (%) ([4]; Month 1, Lemborexant 5 mg): (76.8) %
- Subjective Sleep Onset Latency Responder, Yes, (%) ([4]; Month 1, Lemborexant 5 mg): (18.4) %
- Subjective Sleep Onset Latency Responders, Difference of proportion vs. Placebo ([4]; Month 1, Lemborexant 5 mg): 8.28
- Subjective Sleep Onset Latency Responder, No, (%) ([4]; Month 1, Lemborexant 10 mg): (75.8) %
- Subjective Sleep Onset Latency Responder, Yes, (%) ([4]; Month 1, Lemborexant 10 mg): (21.0) %
- Subjective Sleep Onset Latency Responders, Difference of proportion vs. Placebo ([4]; Month 1, Lemborexant 10 mg): 11.14
- proportion of sSOL responders compared with placebo ([4]; both doses, first 7 days and end of month 1, responder: sSOL of 20 or less minutes provided baseline sSOL at least 30 minutes (Table 30)): statistically significantly superior

— patent US20220305012A1, “L[…] TREATING SLEEP ISSUES” (EISAI R&D MANAGEMENT CO., LTD., priority 2019, published 2022)
